Columns and labels:
[1] = system: leukemic T cells (Jurkat); conditions: cited from earlier work
HeLa = conditions: cited from earlier work
[2] = system: H460 non-small cell lung cancer xenografts; assay: Tumor growth of human lung cancer xenografts, intratumoral injection; format: in vivo, NOD/SCID mice
Text: The inventors assessed the growth-inhibitory activity of hsa-miR-34a in human lung cancer xenografts grown in immunodeficient mice. Each 3×10^6 human H460 non-small cell lung cancer cells were mixed with BD Matrigel™, (BD Biosciences; San Jose, Calif., USA; cat. no. 356237) in a 1:1 ratio and subcutaneously injected into the lower back of 23 NOD/SCID mice (Charles River Laboratories, Inc.; Wilmington, Mass., USA). Once animals developed palpable tumors (day 11 post xenograft implantation), a group of six animals received intratumoral injections of each 6.25 μg hsa-miR-34a (Dharmacon, Lafayette, Colo.) formulated with the lipid-based siPORT™ amine delivery agent (Ambion, Austin, Tex.; cat. no. AM4502) on days 11, 14, and 17. A control group of six animals received intratumoral injections of each 6.25 μg negative control miRNA (NC; Dharmacon, Lafayette, Colo.), following the same injection schedule that was used for hsa-miR-34a. Given an average mouse weight of 20 g, this dose equals 0.3125 mg/kg. […] Caliper measurements were taken every 1-2 days, and tumor volumes were calculated using the formula, Volume=length×width×width/2, in which the length is greater than the width. Average tumor volumes, standard deviations and p-values were calculated and plotted over time (FIG. 4).

[3] = system: PPC-1 prostate cancer xenograft; assay: Tumor growth of human prostate cancer xenograft; format: in vivo, NOD/SCID mice
Experimental: Therefore, hsa-miR-34a is likely to interfere with prostate tumor growth in the animal. To explore this possibility, the therapeutic potential of synthetic hsa-miR-34a miRNA was evaluated in the animal using the PPC-1 human prostate cancer xenograft. 5×10^6 PPC-1 cells per animal were electroporated with 1.6 μM synthetic hsa-miR-34a or negative control miRNA (Pre-miR™-hsa-miR-34a, Ambion cat. no. AM17100; NC, Pre-miR™ microRNA Precursor Molecule-Negative Control #2, Ambion cat. no. AM17111), mixed with BD Matrigel™, (BD Biosciences; San Jose, Calif., USA; cat. no. 356237) in a 1:1 ratio and implanted subcutaneously into the lower back of NOD/SCID mice (Charles River Laboratories, Inc.; Wilmington, Mass., USA). A group of 7 mice was injected with hsa-miR-34a treated PPC-1 cells, and a group of 7 animals was injected with PPC-1 cells treated with negative control miRNA. To maintain steady levels of miRNA, 6.25 μg of each hsa-miR-34a or negative control miRNA conjugated with the lipid-based siPORT™ amine delivery agent (Ambion, Austin, Tex.; cat. no. AM4502) were repeatedly administered on days 7, 13, 20, and 25 via intra-tumoral injections. Given an average mouse weight of 20 g, this dose equals 0.3125 mg/kg. Tumor growth was monitored by taking caliper measurements every 1-2 days for 32 days. Tumor volumes were calculated using the formula, Volume=length×width×width/2, in which the length is greater than the width, and plotted over time (FIG. 7). Standard deviations are shown in the graph. All data points had p values<0.01. p values were as low as 1.86×10^−9 for data obtained on day 22, indicating statistical significance.

H226 lung cancer cells = assay: Long-term growth curve with repeated electroporation; format: cell-based, human; conditions: day 31, relative to control cells (100%)
Experimental: To evaluate the therapeutic activity of hsa-miR-34a over an extended period of time, the inventors conducted growth curve experiments in the presence of miRNA for up to 31 days in H226 lung cancer cells. Since in vitro transfections of naked interfering RNAs, such as synthetic miRNA, are transient by nature and compromised by the dilution of the oligo during ongoing cell divisions, miRNA was administered at multiple time points (Bartlett et al., 2006; Bartlett et al., 2007). To accommodate miRNA delivery into a large quantity of cells, hsa-miR-34a or negative control miRNA were delivered by the electroporation method. Briefly, 1×10^6H226 were electroporated in triplicate with 1.6 μM hsa-miR-34a or negative control using the BioRad Gene Pulser Xcell™ instrument (BioRad Laboratories Inc., Hercules, Calif., USA), seeded and propagated in regular growth medium. When the control cells reached confluence (days 6, 17 and 25), cells were harvested, counted and electroporated again with the respective miRNAs. […] The population doubling was calculated from these electroporation events using the formula PD=ln(Nf/N0)/ln 2 and adjusting for the fact that approximately 72% of newly seeded cells adhere to the plate. […]

## hsa-miR-34a: synthetic miRNA; mature sequence UGGCAGUGUCUUAGCUGGUUGUU (MIMAT0000255; SEQ ID NO:1) (synthetic miRNA, chemistry not given here)
[1]
  proliferation: inhibits the proliferation
HeLa
  programmed cell death (apoptosis): decreased
[2]; day 19, 6.25 μg intratumoral in siPORT amine on days 11, 14, 17, n=6
  average tumor volume: 196 mm^3
[2]; three intratumoral doses
  growth of established H460 lung tumors: robustly inhibited growth
[3]; day 32, cells electroporated with 1.6 μM, then 6.25 μg intratumoral on days 7, 13, 20, 25, n=7
  average tumor volume: 151 mm^3
[3]; mouse, in vivo
  effect of each single administration on tumor volumes: acute regression of tumor volumes
[3]; repeated dosing
  tumor growth of PPC-1 xenograft: blocked tumor growth
H226 lung cancer cells; 1.6 μM electroporated on days 0, 6, 17, 25
  inhibition of H226 cell growth: 94.9%
H226 lung cancer cells
  remaining cells: 5.1%
